According to patent US4473557A, “3"-Deoxystreptomycin production thereof and pharmaceutical compositions containing same” (Zaidan Hojin Biseibutsu Kagaku Kenkyu Kai, priority 1982, dated 1984):
≈ marks a conversion by molar mass, not a printed value. Read-outs that look alike come from different tables or passages of the source.

Columns and labels:
[1] = system: Escherichia coli ML 1629; test: Minimum inhibitory concentration, serial dilution on nutrient agar; assay type: cell-based
From the text: (§1) Minimum inhibitory concentrations (mcg/ml) of streptomycin and of the parent 3"-deoxydihydrostreptomycin were also estimated in the same manner as above for the comparison purpose and are shown in Table 1 below.

[2] = system: Staphylococcus aureus 209 P; test: as above; assay type: cell-based
From the text: as §1

[3] = system: Sarcia lutea 1001; test: as above; assay type: cell-based; conditions: 17 h
From the text: as §1

[4] = system: Salmonella typhi T-63; test: as above; assay type: cell-based; conditions: Salmonella enterica, 17 h
From the text: as §1

[5] = system: Bacillus subtilis NRRL B558; test: as above; assay type: cell-based
From the text: as §1

[6] = system: Pseudomonas aeruginosa No. 12; test: as above; assay type: cell-based
From the text: as §1

[7] = system: Pseudomonas aeruginosa A3; test: as above; assay type: cell-based
From the text: as §1

[8] = system: Escherichia coli C600 R135; test: as above; assay type: cell-based; conditions: C600R135, 17 h
From the text: as §1

[9] = system: Escherichia coli JR66/W677; test: as above; assay type: cell-based; conditions: 37° C., 17 hours
From the text: as §1

[10] = system: Escherichia coli K-12; test: as above; assay type: cell-based
From the text: as §1

[11] = system: Escherichia coli W 677; test: as above; assay type: cell-based
From the text: as §1

[12] = system: Escherichra coli ML 1630; test: as above; assay type: cell-based; conditions: 37° C., 17 hours
From the text: as §1

[13] = system: Mycobacterium smegmatis 607; test: as above; assay type: cell-based
From the text: as §1

[14] = system: resistant bacteria; conditions: Kokai No. 105154/77; Journal of Antibiotics Vol. 29, 978 (1976); cited from earlier work
[15] = in vivo; conditions: mouse, iv
[16] = system: streptomycin-resistant bacteria; test: Activity against streptomycin-resistant bacteria; assay type: cell-based; conditions: variety of streptomycin-resistant bacteria
From the text: as §1

[17] = system: ICR mice; test: Acute toxicity by intravenous injection in mice; conditions: dosage of 4 mg/kg (so in the source)
[18] = Staphylococcus aureus, 209P, 17 h
[19] = NRRLB558, Bacillus subtilis NRRL B558, nutrient agar, 37° C., 17 hours, read-out: MIC.
[20] = Pseudomonas aeruginosa No. 12, nutrient agar, 37° C., 17 hours, read-out: MIC.
[21] = Pseudomonas aeruginosa A3, nutrient agar, 37° C., 17 hours, read-out: MIC.
[22] = K12, Escherichia coli K-12, nutrient agar, 37° C., 17 hours, read-out: MIC.
[23] = W677, Escherichia coli W 677, nutrient agar, 37° C., 17 hours, read-out: MIC.
[24] = Mycolicibacterium smegmatis, Mycobacterium smegmatis 607, nutrient agar, 37° C., 17 hours, read-out: MIC.

| Compound | MIC ([1]; Escherichia coli, ML1629, 17 h) [µg/mL] | MIC [2, 18] [µg/mL] | MIC [3] [µg/mL] | MIC [4] [µg/mL] | MIC [5, 19] [µg/mL] | MIC [6, 20] [µg/mL] | MIC [7, 21] [µg/mL] | MIC [8] [µg/mL] | MIC [9] [µg/mL] | MIC [10, 22] [µg/mL] | MIC [11, 23] [µg/mL] | MIC [12] [µg/mL] | MIC [13, 24] [µg/mL] | further results |
| --- | --- | --- | --- | --- | --- | --- | --- | --- | --- | --- | --- | --- | --- | --- |
| CNC1CC(O)C(CO)OC1OC1C(OC2C(O)C(O)C(NC(=N)N)C(O)C2NC(=N)N)OC(C)C1(O)CO (stereo not shown) [3"-Deoxydihydrostreptomycin, 3"-deoxydihydrostreptomycin] | 3.12 (≈ 5.5 µM) | 3.12 (≈ 5.5 µM) | 3.12 (≈ 5.5 µM) | 3.12 (≈ 5.5 µM) | 1.56 (≈ 2.75 µM) | 25 (≈ 44 µM) | 12.5 (≈ 22 µM) | 3.12 (≈ 5.5 µM) | 12.5 (≈ 22 µM) | 1.56 (≈ 2.75 µM) | 1.56 (≈ 2.75 µM) | 1.56 (≈ 2.75 µM) | 0.78 (≈ 1.37 µM) | activity against the resistant bacteria [14]: active against the resistant bacteria |
| CNC1CC(O)C(CO)OC1OC1C(OC2C(O)C(O)C(NC(=N)N)C(O)C2NC(=N)N)OC(C)C1(O)C=O (stereo not shown) [3"-Deoxystreptomycin, 3"-deoxystreptomycin] |  |  | 1.56 (≈ 2.76 µM) | 0.78 (≈ 1.38 µM) | 1.56 (≈ 2.76 µM) | 25 (≈ 44.2 µM) | 6.25 (≈ 11.1 µM) | 3.12 (≈ 5.52 µM) | 12.5 (≈ 22.1 µM) | 1.56 (≈ 2.76 µM) | 1.56 (≈ 2.76 µM) | 3.12 (≈ 5.52 µM) | 0.78 (≈ 1.38 µM) | MIC ([1]; ML1629, Escherichia coli ML 1629, nutrient agar, 37° C., 17 hours, read-out: MIC.): 1.56 µg/mL (≈ 2.76 µM); MIC ([2]; Staphylococcus aureus 209 P, nutrient agar, 37° C., 17 hours, read-out: MIC.): 3.12 µg/mL (≈ 5.52 µM); LD50 at 336 h [15]: > 200 mg/kg; activity against streptomycin-resistant bacteria [16]: active against a variety of streptomycin-resistant bacteria; survival for more than 14 days [17]: all the treated mice survived for more than 14 days |
| [H]/N=C(/N)N[C@H]1[C@H](O)[C@@H](O)[C@H](O[C@@H]2O[C@@H](C)[C@](O)(C=O)[C@H]2O[C@@H]2O[C@@H](CO)[C@H](O)[C@@H](O)[C@@H]2NC)[C@@H](N/C(N)=N\[H])[C@@H]1O [Streptomycin, streptomycin] | 100 (≈ 172 µM) | 3.12 (≈ 5.36 µM) | 1.56 (≈ 2.68 µM) | 25 (≈ 43 µM) |  |  |  | 50 (≈ 86 µM) | > 100 |  |  | > 100 |  | MIC ([5]; Bacillus subtilis, NRRLB558, 17 h): 0.78 µg/mL (≈ 1.34 µM); MIC ([6]; Pseudomonas aeruginosa, NO.12, 17 h): 25 µg/mL (≈ 43 µM); MIC ([7]; Pseudomonas aeruginosa, A3, 17 h): 6.25 µg/mL (≈ 10.7 µM); MIC ([10]; Escherichia coli, K12, 17 h): 1.56 µg/mL (≈ 2.68 µM); MIC ([11]; Escherichia coli, W677, 17 h): 1.56 µg/mL (≈ 2.68 µM); MIC ([13]; Mycolicibacterium smegmatis, 607, 17 h): 1.56 µg/mL (≈ 2.68 µM) |
